Source: ChEMBL document CHEMBL1201862, “PubChem BioAssay data set” (2004)
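Tested at 5 concentrations; 48 h exposure; 96-well plates; endpoints linearly interpolated, else capped at highest concentration. GI50 marks 50% less growth.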 Activity calls are given as the source filed them. Rule as the data show it: active = GI50 up to about 1.1 µM and inactive = higher.

Columns and labels:
Assay in all cases: growth of human tumour cells (NCI), 48 h
[1] = system: T47D
[2] = system: M14
[3] = system: HT-29
[4] = system: HCT-116
[5] = system: SK-MEL-28
[6] = system: SW-620
[7] = system: MDA-MB-435
[8] = system: NCI-H23
[9] = system: MDA-N
[10] = system: IGROV-1
[11] = system: HL-60
[12] = system: ACHN
[13] = system: HOP-62
[14] = system: KM12
[15] = system: SK-MEL-2
[16] = system: MDA-MB-231
[17] = system: SF-268
[18] = system: OVCAR-8
[19] = system: EKVX
[20] = system: RPMI-8226

| SMILES | GI50 [1] | GI50 [2] | GI50 [3] | GI50 [4] | GI50 [5] | GI50 [6] | GI50 [7] | GI50 [8] | GI50 [9] | GI50 [10] | GI50 [11] | GI50 [12] | GI50 [13] | GI50 [14] | GI50 [15] | GI50 [16] | GI50 [17] | GI50 [18] | GI50 [19] | GI50 [20] |
| --- | --- | --- | --- | --- | --- | --- | --- | --- | --- | --- | --- | --- | --- | --- | --- | --- | --- | --- | --- | --- |
| C=C1CC2(OC1=O)c1ccccc1CCc1ccccc12 | 2.07 µM (inactive) | 1.97 µM (inactive) | 1.84 µM (inactive) | 1.44 µM (inactive) | 1.81 µM (inactive) | 1.59 µM (inactive) | 2.48 µM (inactive) | 9.95 µM (inactive) | 1.8 µM (inactive) | 7.23 µM (inactive) | 0.729 µM (active) | 1.71 µM (inactive) | 26.1 µM (inactive) | 3.61 µM (inactive) | 5.62 µM (inactive) | 9.27 µM (inactive) | 1.93 µM (inactive) | 4.48 µM (inactive) | 7.38 µM (inactive) | 2.07 µM (inactive) |
| N#Cc1c(-c2ccc([N+](=O)[O-])cc2)cc(-c2ccc(Nc3ccnc4cc(Cl)ccc34)cc2)nc1N | 4.81 µM (inactive) | 21.1 µM (inactive) | 2.71 µM (inactive) | 2.3 µM (inactive) | 6.25 µM (inactive) | > 21.7 µM (inactive) | 3.35 µM (inactive) | 25.2 µM (inactive) | 3.52 µM (inactive) | 3.22 µM (inactive) | 12.4 µM (inactive) | 30.5 µM (inactive) | 9.46 µM (inactive) | 2.38 µM (inactive) | 14.7 µM (inactive) | 16.9 µM (inactive) | 14.9 µM (inactive) | 2.19 µM (inactive) | 16.9 µM (inactive) | 5.02 µM (inactive) |
| COc1cc(/C=C2\N=C(c3ccccc3)N(c3ccc4c(c3)Sc3cc(N5C(=O)/C(=C/c6cc(OC)c(OC)c(OC)c6)N=C5c5ccccc5)ccc3N4)C2=O)cc(OC)c1OC | 25.2 µM (inactive) | 31.6 µM (inactive) | > 100 µM (inactive) | 42 µM (inactive) | 40.6 µM (inactive) | 42.7 µM (inactive) | 18 µM (inactive) | 19.3 µM (inactive) | 19.8 µM (inactive) | 17 µM (inactive) | 26.9 µM (inactive) | 19 µM (inactive) | 25.5 µM (inactive) | > 100 µM (inactive) | 18.5 µM (inactive) | 25.7 µM (inactive) | 18.4 µM (inactive) | 18.5 µM (inactive) | 22.8 µM (inactive) | 27.4 µM (inactive) |
| COc1ccc(C2c3cc4c(cc3OC(NNc3ccccc3)C2C)OCO4)cc1 (stereo not given) | 6.12 µM (inactive) | 6.14 µM (inactive) | 11.6 µM (inactive) | 4.44 µM (inactive) | 26.4 µM (inactive) | 21.7 µM (inactive) | 4.71 µM (inactive) | 13.4 µM (inactive) | 8.71 µM (inactive) | 7.31 µM (inactive) | 5.25 µM (inactive) | 1.93 µM (inactive) | 3.5 µM (inactive) | 2.91 µM (inactive) | 21.7 µM (inactive) | 23.2 µM (inactive) | 20.3 µM (inactive) | 24.9 µM (inactive) | 3.75 µM (inactive) | 4.47 µM (inactive) |
| Oc1ccc[nH]c1=[Se] | 22.4 µM (inactive) | 47.6 µM (inactive) | > 100 µM (inactive) | 33.9 µM (inactive) | 71.1 µM (inactive) | 77.6 µM (inactive) | 41.8 µM (inactive) | 46.2 µM (inactive) | 57 µM (inactive) | 66.7 µM (inactive) | > 100 µM (inactive) | 48.6 µM (inactive) | 29.1 µM (inactive) | 45.5 µM (inactive) | > 100 µM (inactive) | > 100 µM (inactive) | 76.2 µM (inactive) | 37.2 µM (inactive) | 25.8 µM (inactive) | 40.6 µM (inactive) |
